Paper PMC9056986 (RSC Advances, 2020)

Target: HCV-NS3/4A protease (Hepacivirus hominis (Hepatitis C virus), UniProt O92972)
Experiment: HCV-NS3/4A protease inhibition, in vitro FRET assay
Assay type: biochemical
Details: IC50, purified HCV-NS3/4A protease

Chain of HCV-NS3/4A protease (O92972 1027-1207, other chains not shown): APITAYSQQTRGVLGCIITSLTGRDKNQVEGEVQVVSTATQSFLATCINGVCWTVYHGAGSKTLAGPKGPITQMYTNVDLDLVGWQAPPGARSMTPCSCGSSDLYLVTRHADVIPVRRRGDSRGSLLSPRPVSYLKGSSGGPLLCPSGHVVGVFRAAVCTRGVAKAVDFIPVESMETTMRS

Row | IC50 [µM] | SMILES
1 | 178 ± 3.9 | CCn1c(NN)nc2ccc(C)cc2c1=O [Compound 15, 3-Ethyl-2-hydrazinyl-6-methyl-3H-quinazolin-4-one]
2 | 78.8 ± 1.7 | CCn1c(NN)nc2cc3ccccc3cc2c1=O [Compound 8, 3-Ethyl-2-hydrazinyl-benzo[g]quinazolin-4(3H)-one]
3 | 22.3 ± 0.46 | Cn1c(NN)nc2cc3ccccc3cc2c1=O [Compound 7, 3-Methyl-2-hydrazinylbenzo[g]quinazolin-4(3H)-one]
4 | 25.5 ± 0.55 | Cc1ccc2nc(NN)n(C)c(=O)c2c1 [Compound 14, 3-Methyl-2-hydrazinyl-6-methyl-3H-quinazolin-4-one]
